≈ marks a conversion by molar mass, not a printed value.
What was measured:
L 1210 leukemia cells [1] = test: Proliferation assay: incorporation of C-14-thymidine in L 1210 cells; type: cell-based; conditions: Mus musculus, read-out: Proliferation assay IC50
Experimental: The determination of the cytotoxic activity of the compounds described in the present patent is carried out on L 1210 leukemia cells of the mouse. Specifically, the following test systems were used:
In this in vitro method, after incubation of the cells with varying concentrations of the test substance a determination is carried out of the extent to which the cells can incorporate radioactively labelled DNA-precursors (for example C-14-labelled thymidine).
L 1210 Cells in the exponential growth phase (5×10^3 /ml in RPMI 1640) are incubated for 72 hours, in a microtitration plate, with different concentrations of the test substance (37° C., 5% CO2, 95% relative atmospheric humidity). Controls consist of cells which are incubated solely with fresh medium. All assays are carried out in quadruplicate. After 65 hours, 50 μl of C-14-thymidine (1.5 μc/ml) are added in order to radioactively label the DNA of the cell. After 7 hours' incubation, the cells are filtered off with suction, and the DNA is precipitated with 5% strength dichloroacetic acid and successively washed with water and methanol. After drying at 50° C., the radioactivity built into the DNA is determined after adding 5 ml of scintillation fluid.
The results are quoted as a ratio of the scintillation indices obtained after incubation with the test substance and obtained with the untreated control. From the measurements thus obtained, the dose/effect curve is determined and the IC50, i.e. the concentration which under test conditions reduces the incorporation of radioactive thymidine by 50% relative to the control, is determined graphically.

L 1210 leukemia cells [2] = test: Colony formation of L 1210 leukemia cells in soft agar (stem cell assay); type: cell-based; conditions: Mus musculus
Experimental: In this test, cytostatically active substances produce a reduction of the number of colonies observed relative to an untreated control. Specifically, the test is carried out as follows:
500 Leukemia cells per plate are incubated with different concentrations of test substance for 1 hour at 37° C. The cells are then washed twice with McCoy 5a medium and finally, after addition of 0.3% of agar, poured out into Petri dishes. Controls are incubated with fresh medium only. In place of the 1-hour incubation, different concentrations of the test substance are in some cases mixed into the upper agar layer so as to achieve continuous exposure of the cells over the entire incubation period. After the agar has solidified, the plates are incubated in an incubating chamber for 7 days at 37° C. (5% CO2, 95% relative atmospheric humidity). Thereafter, the number of colonies formed which have a diameter of 60μ is counted. The results are quoted as the number of colonies in the treated agar plates expressed as a percentage of those in the untreated control. From the dose/effect curve thus obtained, the IC50 is determined and serves as a measure of the effectiveness of the substance.

[3] = Determination of acute toxicity, intraperitoneal; conditions: mouse, in vivo, ip, NMRI mice, day 14, Litchfield Wilcoxon
Experimental: To determine the acute toxicity, NMRI mice were injected intraperitoneally,on day 0, with different doses of the test substance suspended in 0.5 ml of 0.5% strength carboxymethylcellulose. Control groups were given solely 0.5 ml of carboxymethylcellulose solution. 5 Mice were employed per concentration of test substance. On day 14, the number of surviving mice is determined and the LD50 found therefrom by the Litchfield Wilcoxon method.

[4] = L1210, L 1210 cells, 72 hours, C-14-thymidine incorporation
[5] = L1210, 168 h, L 1210 colony formation in soft agar, continuous exposure, 7 days, read-out: Stem cell assay IC50, Incubation: Continuous
[6] = L1210, L 1210 colony formation in soft agar, 1 hour incubation, 7 days, read-out: Stem cell assay IC50, Incubation: 1 hour

Row | IC50 (L 1210 leukemia cells [1]; [4]) | Structure (SMILES) | IC50 (L 1210 leukemia cells [1]; L1210, 72 h) | IC50 (L 1210 leukemia cells [2]; L1210, 168 h, read-out: Stem cell assay IC50, Incubation: Continuous) | IC50 (L 1210 leukemia cells [2]; L1210, read-out: Stem cell assay IC50, Incubation: 1 hour) | LD50 at 336 h [3] | IC50 (L 1210 leukemia cells [2]; [5]) | IC50 (L 1210 leukemia cells [2]; [6])
1 |  | COc1cccc2c1C(=O)c1c(O)c3c(c(O)c1C2=O)C[C@@](O)(C(=O)CO)C[C@@H]3O[C@H]1C[C@H](N)[C@H](O)[C@H](C)O1 [Adriamycin, reference compound] | 0.006 µg/mL (≈ 0.011 µM) | 0.02 µg/mL (≈ 0.0368 µM) | 0.044 µg/mL (≈ 0.081 µM) | 14 mg/kg |  | 
2 | 0.028 µg/mL (≈ 0.0945 µM) | O=C1c2ccccc2C(=O)c2c(OCC3CO3)ccc(O)c21 (centres unmarked) [Example 3, 1-Hydroxy-anthraquinone-4-(oxy-2,3-oxido-propane)] |  |  |  |  | 0.03 µg/mL (≈ 0.101 µM) | 0.066 µg/mL (≈ 0.223 µM)
3 | 0.0022 µg/mL (≈ 0.00624 µM) | O=C1c2ccccc2C(=O)c2c(OCC3CO3)ccc(OCC3CO3)c21 (centres unmarked) [Example 4, Anthraquinone-1,4-bis-(oxy-2,3-oxido-propane)] |  |  |  |  | 0.0033 µg/mL (≈ 0.00937 µM) | 0.004 µg/mL (≈ 0.0114 µM)
4 |  | O=C1c2ccc(OCC3CO3)cc2C(=O)c2ccc(OCC3CO3)cc21 (centres unmarked) [Example 5, Anthraquinone-2,6-bis(oxy-2,3-oxido-propane)] | 0.0044 µg/mL (≈ 0.0125 µM) |  |  | 200 mg/kg | 0.01 µg/mL (≈ 0.0284 µM) | 0.0083 µg/mL (≈ 0.0236 µM)

Row | Structure (SMILES) | IC50 (L 1210 leukemia cells [1]; [4]) | IC50 (L 1210 leukemia cells [1]; L1210, 72 h) | IC50 (L 1210 leukemia cells [2]; L1210, 168 h, read-out: Stem cell assay IC50, Incubation: Continuous) | IC50 (L 1210 leukemia cells [2]; L1210, read-out: Stem cell assay IC50, Incubation: 1 hour) | LD50 at 336 h [3] | IC50 (L 1210 leukemia cells [2]; [5]) | IC50 (L 1210 leukemia cells [2]; [6])
5 | O=C1c2cccc(OCC3CO3)c2C(=O)c2c(OCC3CO3)cccc21 (centres unmarked) [Example 8, Anthraquinone-1,8-bis-(oxy-2,3-oxido-propane)] | 0.028 µg/mL (≈ 0.0795 µM) |  |  |  |  | 0.0085 µg/mL (≈ 0.0241 µM) | 0.03 µg/mL (≈ 0.0851 µM)

Reference: patent US4762648A, “Monofunctional and bisfunctional anthraquinone-(oxy-2,3-oxidopropanes), processes for their preparation, and their use as drugs” (Hoechst Aktiengesellschaft, priority 1983, dated 1988)
